Here are results for 9 molecules from publication PMC6320925, “Synthesis, In Vitro Biological Evaluation, and Oxidative Transformation of New Flavonol Derivatives: The Possible Role of the Phenyl-N,N-Dimethylamino Group” (Molecules, 2018).

Details of data set [1]: method as in ref 20 (Culhaoglu et al.). The conditions noted are these: ref 20 (Culhaoglu et al.); cited from earlier work.
Details of data set [2]: method as in ref 20 (Culhaoglu et al.). The conditions noted are these: ref 20 (Culhaoglu et al.); cited from earlier work. The source holds these as a separate data set.
On the set-up of data set [3]: method as in PMID 28383511. The note with it: cited from earlier work.
A short description of data set [4]: FRAP assay (ferric reducing antioxidant power). The conditions noted are these: all tested concentrations (10–200 µM), 30 min incubation. The procedure:
The ferric reducing antioxidant power of the compounds was tested with a modified method of Benzie and Strain [37]. The FRAP reagent consisted of 10 mL acetate buffer (300 mM, pH 3.6), 1 mL TPTZ solution (10 mM) in 40 mM HCl, and 1 mL FeCl3 (10 mM). The mixture was incubated at 37 °C for 15 min and used on the same day. The reaction mixture was prepared by 20 µL of the investigated compound (10, 20, 50, 100, and 200 µM) and 180 µL activated FRAP reagent in a 96-well plate. Following a 30 min incubation period, the absorbance was measured at 593 nm by a Multiskan GO microplate spectrophotometer (Thermo Fisher Scientific, Waltham, MA, USA). Iron (II) sulfate heptahydrate was used as the standard in different concentrations (0.5, 1, 5, 10, 50, 100, and 500 µM). The FRAP values are expressed as µM ferrous equivalents. The experiments were run in duplicate and repeated three times.

The nature of data set [5]: ORAC assay (oxygen radical absorbance capacity). The note with it: for ORAC value compared to quercetin: 10 µM; for ORAC value (AUCnet): 2 and 10 µM. The procedure: The oxygen radical absorbance capacity was evaluated using the ORAC assay. The test was carried out in a black 96-well plate with a black bottom. The stock solutions of 50 nM fluorescein and 180 mM AAPH in phosphate buffer (75 mM, pH 7.00) were prepared freshly and used on the same day. To each well, 20 µL of compound in ACN (2 and 10 µM) was added to 160 µL fluorescein. In the case of blank samples, 20 µL of ACN was added. The plate was incubated for 15 min at 37 °C, and then the 20 µL AAPH solution was rapidly added to each well to initiate the reaction. The fluorescence was monitored at 485 nm excitation and 520 nm emission wavelength for 2 h every 2 min by the FLUOstar OPTIMA (BMG Labtech, Ortenberg, Germany) plate reader. The assay was performed in duplicate and repeated three times. The area under the curve (AUC) was calculated as follows:AUC = 0.5 + (A1/A0) + (A2/A0) + (A3/A0) + ⋯ + (An/A0),(1) where A0 is the fluorescence reading at 0 min and An is the fluorescence reading at n min. The reported ORAC values were calculated by subtracting the blank AUC from the sample AUC and expressed as AUCnet. AUCnet = AUCsample − AUCblank(2)

A further data set concerns H9c2 cells. Put plainly: MTT cell viability assay. It is filed as cell-based. The note with it: 20 µM, 12 h. How it is done:
(§1) The MTT assay was used to determine the effect of the investigated compounds on the cell viability. H9c2 cells (ATCC, CRL-1446, LGC Standards GmbH, Wesel, Germany) were seeded into 96-well plates at a density of 6000 cells/well in 200 µL media (DMEM, high glucose, pyruvate from Thermo Fischer Scientific with 10% FBS and supplemented with penicillin and streptomycin) and cultured overnight. The flavonols were added to the cells in 20 µM concentration. After 12 h, 20 μL of MTT solution ([…] in PBS) was added to each well, and the plates were incubated for 4 h. Afterwards, the media was carefully removed and 100 μL DMSO was added to each well to dissolve the formazan crystals. Absorbance was measured at 540 and 630 nm using a Synergy HT plate reader (BioTek, Winooski, VT, USA). The tests were carried out in triplicate and repeated two times.

Data set [6] is described as follows: ABTS radical scavenging assay. The conditions noted are these: from inhibition percentage at 120 min, concentration range 10–200 µM. How it is done:
To measure the ABTS radical scavenging activity, the work of Sugahara et al. and Re et al. was followed closely, applying few alterations. A mixture containing 7 mM ABTS and 2.45 mM K2S2O8 in water was kept in the dark for 16 h to form ABTS^•+. The working solution was prepared by adding 150 µL of ABTS^•+ solution to 2.9 mL MeOH. Aliquots of 180 µL of this working solution were pipetted into wells containing 20 µL of test samples in DMSO with different concentrations (10, 20, 50, 100, and 200 µM). Absorbance was measured at 737 nm after 10 s mixing using a Multiskan GO microplate spectrophotometer (Thermo Fisher Scientific, Waltham, MA, USA) at 0, 1, 2, 3, 4, 5, 10, 15, 30, 45, 60, 75, 90, 105, and 120 min. Quercetin was used as the standard. The IC50 values were calculated based on the inhibition percentage measured at 120 min. The experiments were carried out in duplicate and repeated three times.

The nature of data set [7]: DPPH radical scavenging assay. The note with it: from inhibition percentage at 90 min, concentration range 10–200 µM. How it is done:
The method used for the DPPH radical scavenging assay was adopted from Clarke et al., with modifications. A total of 180 µL freshly made 0.2 mM DPPH solution in methanol was added to 20 µL of the investigated compounds in various concentrations (10, 20, 50, 100, and 200 µM) in DMSO. After a gentle, 10-s mixing period, the plate was kept in the dark for 90 min. and the absorbance was read at 515 nm using a Multiskan GO microplate spectrophotometer (Thermo Fisher Scientific, Waltham, MA, USA) at 0, 1, 2, 3, 4, 5, 10, 15, 30, 45, 60, 75, and 90 min. Blanks (20 µL DMSO with 180 µL MeOH) and quercetin standards in the same concentration as the tested compounds were measured simultaneously. The IC50 values were calculated based on the inhibition percentage measured at 90 min. The measurements were performed in duplicate and repeated three times.

The nature of data set [8]: Chemical Fenton reaction (biomimetic model of phase I biotransformation). The class given is in vitro ADME. The conditions noted are these: ESI-MS and LC-MS detection. How it is done: The Fenton reaction of the compounds was carried out based on a method reported previously by Csepanyi et al.. The reaction mixture consisted of 400 μL 2.5 mM of the investigated compound in ACN, 50 μL 20 mM FeCl3, 50 μL 20 mM EDTA-Na2, and 500 μL 10 mM ascorbic acid in ACN/H2O (50:50) and 2 μL 30% hydrogen peroxide. The reaction mixture was stirred at room temperature at 700 rpm. Samples were drawn at 2, 24, 72, and 144 h and were diluted with ACN/H2O (50:50) and analyzed immediately by an API 2000 Triple Quadrupole mass spectrometer (Applied Biosystems, Waltham, MA, USA) equipped with a syringe pump with the following parameters: 20 μL/min flow rate, 10 PSI curtain gas, 20 V declustering potential, 4000 V ion spray voltage, 400 V focusing potential, and 200 °C ion source temperature. The positive ion electrospray mass spectra were recorded in the range of m/z 100–500 using Analyst 1.5.1. Software (AB SCIEX, Concord, ON, Canada). In additional experiments, the reaction mixture was separated and analyzed with an LTQ XL linear ion trap mass spectrometer coupled with the Accela LC system (Thermo Fisher Scientific, Waltham, MA, USA). The HPLC separation was performed using a Kinetex XB-C18 2.6 μm column, 0.1% formic acid in water, and ACN with 0.1% formic acid with gradient elution, and the flow rate was set to 300 μL/min. […]

A short description of the next data set: MTT cell viability assay. The class given is cell-based. The conditions noted are these: rat, H9c2 cells, read-out: cell viability compared to the control. The procedure: as §1
For orientation: Tetrazolium dyes change colour on reduction, which living cells bring about.

On the set-up of data set [9]: method as in ref 29 (Deng et al.). The note with it: ref 29 (Deng et al.); cited from earlier work.

Turning to `CN(C)c1ccc(-c2oc3ccccc3c(=O)c2O)cc1` [4′-N,N-dimethylamino-3-OH-flavon], in [1], the “scavenging of ABTS radicals” value is given as “significant scavenging”. In addition, the “scavenging of DPPH radicals” value in [2] is “significant scavenging”.

For the molecule `CN(C)c1ccc(-c2cc(=O)c3ccccc3o2)cc1` [4′-N,N-dimethylamino-flavon], in data set [3], the radical scavenger activity entry is “good radical scavenger”.

`COc1ccc(-c2oc3ccc(-c4cccc(N(C)C)c4)cc3c(=O)c2O)cc1OC` [6a, 2-(3,4-Dimethoxyphenyl)-6-[3-(dimethylamino)phenyl]-3-hydroxy-4H-chromen-4-one]: the melting point – broadly, the temperature, or range, at which the solid turns liquid – lay in the range of 187.7 to 188.8 °C. Further, in data set [4], the FRAP value result is “highest FRAP values”. In [5], the “ORAC value compared to quercetin” value was “comparable to quercetin” and the “ORAC value (AUCnet)” value was “highest ORAC value”. For the same molecule, the “cytotoxic activity (cell viability)” value with H9c2 cells is on record as “did not exhibit cytotoxic activity”.

Molecule `COCc1ccc(-c2ccc3oc(-c4ccc(OC)c(OC)c4)c(O)c(=O)c3c2)cc1` [6b, 2-(3,4-Dimethoxyphenyl)-3-hydroxy-6-[4-(methoxymethyl)phenyl]-4H-chromen-4-one] yielded a melting point of 192.8 to 194.3 °C. Further, in data set [4], the FRAP value result is on record as “significantly lower ferrous equivalents”. In addition, the “ORAC value (AUCnet)” value in data set [5] was “highest ORAC value”. The “cytotoxic activity (cell viability)” value with H9c2 cells was “significantly decreased the viability of cells”.

With `COc1ccc(-c2oc3cc(-c4cccc(N(C)C)c4)ccc3c(=O)c2O)cc1OC` [6c, 2-(3,4-Dimethoxyphenyl)-7-[3-(dimethylamino)phenyl]-3-hydroxy-4H-chromen-4-one], the “IC50 ABTS radical cation scavenging” value in data set [6] was “lowest IC50 value”. Besides, the “IC50 DPPH scavenging” value in data set [7] was “lowest IC50 value”. For the same molecule, the FRAP value result in data set [4] was “highest FRAP values”. In addition, the “ORAC value (AUCnet)” value in data set [5] is listed as “fourth highest capacity”. Besides, the “cytotoxic activity (cell viability)” value in the data set with H9c2 cells is given as “did not exhibit cytotoxic activity”. The “oxidative transformation products (potential metabolites)” value in data set [8] was “two potential metabolites were detected”.

With `COCc1ccc(-c2ccc3c(=O)c(O)c(-c4ccc(OC)c(OC)c4)oc3c2)cc1` [6d, 2-(3,4-Dimethoxyphenyl)-3-hydroxy-7-[4-(methoxymethyl)phenyl]-4H-chromen-4-one], the melting point lay within 212.1 to 214.2 °C. Besides, the FRAP value result in data set [4] is “significantly lower ferrous equivalents”. For the same molecule, the viability – broadly, a per cent measure of how many cells are alive, often set against a control – at 12 h, 20 µM in “MTT cell viability assay” amounted to 46%. Also, the “cytotoxic activity (cell viability)” value in the data set on H9c2 cells is on record as “significantly decreased the viability of cells”.

In turn, `COc1cc(-c2oc3cc(-c4cccc(N(C)C)c4)ccc3c(=O)c2O)cc(OC)c1OC` [6e, 7-[3-(Dimethylamino)phenyl]-3-hydroxy-2-(3,4,5-trimethoxyphenyl)-4H-chromen-4-one] had a melting point of 179.5 to 181.8 °C. In [7], the “IC50 DPPH scavenging” value is on record as “lower antioxidant potency”. Besides, in data set [4], the FRAP value entry was “highest FRAP values”. In data set [5], the “ORAC value compared to quercetin” value was “comparable to quercetin” and the “ORAC value (AUCnet)” value was “highest ORAC value”. Besides, in the data set with H9c2 cells, the “cytotoxic activity (cell viability)” value is “did not exhibit cytotoxic activity”.

`COCc1ccc(-c2ccc3c(=O)c(O)c(-c4cc(OC)c(OC)c(OC)c4)oc3c2)cc1` [6f, 3-Hydroxy-7-[4-(methoxymethyl)phenyl]-2-(3,4,5-trimethoxyphenyl)-4H-chromen-4-one] came in with a melting point of 208.1 to 209.2 °C. Moreover, the “IC50 DPPH scavenging” value in [7] is listed as “lower antioxidant potency”. Further, the FRAP value result in [4] is “significantly lower ferrous equivalents”. In addition, the “cytotoxic activity (cell viability)” value in the data set on H9c2 cells was “significantly decreased the viability of cells”.

With `O=c1c(O)c(-c2ccc(O)c(O)c2)oc2cc(O)cc(O)c12` [quercetin], in [9], the “FRAP value relative to the methylated form” value is reported as 650 times.
